Results taken from patent US10968178B2, “IP6K inhibitors” (TAKEDA PHARMACEUTICAL COMPANY LIMITED, priority 2017, dated 2021).

Columns and labels:
Format in all cases: biochemical
human IP6K1 = molecular target: T1, human IP6K1 (Homo sapiens, UniProt Q92551); experiment: IP6K enzyme inhibitory assay (ADP-Glo Kinase Assay), human IP6K1; details: compound concentration 0.1 μM; for inhibition at 0.1 µM: read-out: ADP-Glo method inhibitory rate (%) human IP6K1
T1 construct: human IP6K1 (1-441) gene; GST; made in house; host or cells: Sf-9 insect cells
Experimental: (§1) IP6K Enzyme Inhibitory Assay
(§2) Human IP6K3 enzyme was prepared by transducing human IP6K3 (1-410) gene into BL21 (DE3) Escherichia coli and purifying by Ni-NTA (nickel-nitrilotriacetic acid) affinity column. […] The enzymes were used after preservation at −70° C. The IP6K enzyme inhibitory activity of the test compound was measured by the following experiment method and using ADP-Glo™ Kinase Assay (manufactured by Promega). A test compound diluted with an assay buffer (20 mM HEPES (pH 7.5), 6 mM MgCl2, 0.01% Tween-20, 1 mM DTT) was first added by 2 μL to a 384 well plate. […] The IP6K enzyme solution diluted with the assay buffer was added by 2 μL to start the enzyme reaction. Incubation was performed at room temperature for a given time (120 min for rat IP6K3 alone, 60 min for others). After incubation at room temperature, ADP-Glo solution prepared according to the protocol of Promega was added by 3 μL to the 384 well plate and reacted at room temperature for 30 min. Thereafter, Kinase-Detection solution was added by 6 μL to the 384 well plate and reacted at room temperature for 60 min. After the reaction, the luminescence intensity was measured by a plate reader Envision (manufactured by PerkinElmer).

human IP6K2 = molecular target: T2, human IP6K2 (Homo sapiens, UniProt Q9UHH9); experiment: IP6K enzyme inhibitory assay (ADP-Glo Kinase Assay), human IP6K2; details: compound concentration 0.1 μM; for inhibition at 0.1 µM: read-out: ADP-Glo method inhibitory rate (%) human IP6K2
T2 construct: human IP6K2 (1-426) gene; GST; made in house; host or cells: Sf-9 insect cells
T2 sequence (Q9UHH9 1-426): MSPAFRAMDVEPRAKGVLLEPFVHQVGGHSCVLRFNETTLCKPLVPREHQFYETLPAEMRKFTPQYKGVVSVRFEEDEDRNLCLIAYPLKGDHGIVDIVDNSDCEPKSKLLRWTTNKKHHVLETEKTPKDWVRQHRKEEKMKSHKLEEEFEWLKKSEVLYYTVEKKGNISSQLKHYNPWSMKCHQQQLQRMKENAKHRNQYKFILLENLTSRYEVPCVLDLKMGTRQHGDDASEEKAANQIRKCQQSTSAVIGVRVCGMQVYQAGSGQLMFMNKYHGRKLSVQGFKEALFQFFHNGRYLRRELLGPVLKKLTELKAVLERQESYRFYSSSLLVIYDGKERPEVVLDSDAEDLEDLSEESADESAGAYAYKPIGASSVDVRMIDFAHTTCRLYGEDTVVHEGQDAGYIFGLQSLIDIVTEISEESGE
Experimental: as §1, §2

human IP6K3 = molecular target: T3, human IP6K3 (Homo sapiens, UniProt Q96PC2); experiment: IP6K enzyme inhibitory assay (ADP-Glo Kinase Assay), human IP6K3; details: compound concentration 0.1 μM; for inhibition at 0.1 µM: read-out: ADP-Glo method inhibitory rate (%) human IP6K3
T3 construct: human IP6K3 (1-410) gene; made in house; host or cells: BL21 (DE3) Escherichia coli
T3 sequence (Q96PC2 1-410): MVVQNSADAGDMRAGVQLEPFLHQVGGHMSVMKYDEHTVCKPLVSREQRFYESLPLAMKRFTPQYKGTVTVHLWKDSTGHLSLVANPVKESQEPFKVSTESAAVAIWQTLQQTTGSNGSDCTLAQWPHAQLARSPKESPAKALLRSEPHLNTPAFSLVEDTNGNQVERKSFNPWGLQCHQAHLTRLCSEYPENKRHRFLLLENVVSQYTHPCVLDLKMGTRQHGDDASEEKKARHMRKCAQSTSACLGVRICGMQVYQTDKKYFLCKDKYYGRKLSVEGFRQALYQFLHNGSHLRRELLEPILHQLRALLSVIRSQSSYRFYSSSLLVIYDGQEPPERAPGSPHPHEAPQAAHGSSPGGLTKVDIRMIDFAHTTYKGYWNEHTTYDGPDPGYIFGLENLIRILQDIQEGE
Experimental: as §1, §2

T1 sequence (Q92551 whole entry): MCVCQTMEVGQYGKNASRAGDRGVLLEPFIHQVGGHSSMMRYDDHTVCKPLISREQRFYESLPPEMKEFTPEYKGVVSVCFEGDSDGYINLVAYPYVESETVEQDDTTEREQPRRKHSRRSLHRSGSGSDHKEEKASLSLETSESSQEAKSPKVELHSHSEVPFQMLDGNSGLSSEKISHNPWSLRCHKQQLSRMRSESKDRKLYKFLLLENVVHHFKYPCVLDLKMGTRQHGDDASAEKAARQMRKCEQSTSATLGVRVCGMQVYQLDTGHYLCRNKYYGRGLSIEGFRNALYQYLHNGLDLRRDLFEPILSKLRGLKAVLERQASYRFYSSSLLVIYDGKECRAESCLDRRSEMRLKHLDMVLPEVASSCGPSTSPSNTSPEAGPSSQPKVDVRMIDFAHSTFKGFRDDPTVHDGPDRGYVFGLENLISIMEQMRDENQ

SMILES | inhibition at 0.1 µM (human IP6K1) | inhibition at 0.1 µM (human IP6K2) | inhibition at 0.1 µM (human IP6K3) | ADP-Glo method inhibitory rate (%) human IP6K1 (human IP6K1) | ADP-Glo method inhibitory rate (%) human IP6K2 (human IP6K2) | ADP-Glo method inhibitory rate (%) human IP6K3 (human IP6K3)
N#Cc1ccccc1O[C@H]1CC[C@@]2(CC1)C(=O)Nc1ccc(C(=O)O)cc12 [Example 44, (1r,4r)-4-(2-cyanophenoxy)-2′-oxo-1′,2′-dihydrospiro[cyclohexane-1,3′-indole]-5′-carboxylic acid] | 88% | 83% | 94% |  |  | 
N#Cc1ccc(O[C@H]2CC[C@@]3(CC2)C(=O)Nc2ccc(C(=O)O)cc23)cc1 [Example 45, (1r,4r)-4-(4-cyanophenoxy)-2′-oxo-1′,2′-dihydrospiro[cyclohexane-1,3′-indole]-5′-carboxylic acid] | 96% | 93% | 97% |  |  | 
Cc1ccc(O[C@H]2CC[C@@]3(CC2)C(=O)Nc2ccc(C(=O)O)cc23)cc1C [Example 46, (1r,4r)-4-(3,4-dimethylphenoxy)-2′-oxo-1′,2′-dihydrospiro[cyclohexane-1,3′-indole]-5′-carboxylic acid] | 97% | 98% | 99% |  |  | 
Cc1ccc(O[C@H]2CC[C@@]3(CC2)C(=O)Nc2ccc(C(=O)O)cc23)c(C)c1 [Example 47, (1r,4r)-4-(2,4-dimethylphenoxy)-2′-oxo-1′,2′-dihydrospiro[cyclohexane-1,3′-indole]-5′-carboxylic acid] |  |  |  | 99% | 96% | 99%
Cc1cc(C)cc(O[C@H]2CC[C@@]3(CC2)C(=O)Nc2ccc(C(=O)O)cc23)c1 [Example 48, (1r,4r)-4-(3,5-dimethylphenoxy)-2′-oxo-1′,2′-dihydrospiro[cyclohexane-1,3′-indole]-5′-carboxylic acid] | 86% | 91% | 97% |  |  | 
COc1ccc(O[C@H]2CC[C@@]3(CC2)C(=O)Nc2ccc(C(=O)O)cc23)cc1 [Example 49, (1r,4r)-4-(4-methoxyphenxoy)-2′-oxo-1′,2′-dihydrospiro[cyclohexane-1,3′-indole]-5′-carboxylic acid] | 100% | 99% | 100% |  |  | 
Cc1cc(F)ccc1O[C@H]1CC[C@@]2(CC1)C(=O)Nc1ccc(C(=O)O)cc12 [Example 50, (1r,4r)-4-(4-fluoro-2-methylphenoxy)-2′-oxo-1′,2′-dihydrospiro[cyclohexane-1,3′-indole]-5′-carboxylic acid] | 101% | 100% | 96% |  |  | 
Cc1cc(O[C@H]2CC[C@@]3(CC2)C(=O)Nc2ccc(C(=O)O)cc23)ccc1F [Example 51, (1r,4r)-4-(4-fluoro-3-methylphenoxy)-2′-oxo-1′,2′-dihydrospiro[cyclohexane-1,3′-indole]-5′-carboxylic acid] | 98% | 97% | 96% |  |  | 
Cc1ccc(O[C@H]2CC[C@@]3(CC2)C(=O)Nc2ccc(C(=O)O)cc23)cc1F [Example 52, (1r,4r)-4-(3-fluoro-4-methylphenoxy)-2′-oxo-1′,2′-dihydrospiro[cyclohexane-1,3′-indole]-5′-carboxylic acid] | 99% | 100% | 96% |  |  | 
Cc1cccc(O[C@H]2CC[C@@]3(CC2)C(=O)Nc2ccc(C(=O)O)cc23)c1F [Example 53, (1r,4r)-4-(2-fluoro-3-methylphenoxy)-2′-oxo-1′,2′-dihydrospiro[cyclohexane-1,3′-indole]-5′-carboxylic acid] | 96% | 96% | 97% |  |  | 
Cc1ccc(O[C@H]2CC[C@@]3(CC2)C(=O)Nc2ccc(C(=O)O)cc23)c(F)c1 [Example 54, (1r,4r)-4-(2-fluoro-4-methylphenoxy)-2′-oxo-1′,2′-dihydrospiro[cyclohexane-1,3′-indole]-5′-carboxylic acid] | 99% | 100% | 101% |  |  | 
O=C(O)c1ccc2c(c1)[C@]1(CC[C@@H](Oc3ccc(F)c(F)c3)CC1)C(=O)N2 [Example 55, (1r,4r)-4-(3,4-difluorophenoxy)-2′-oxo-1′,2′-dihydrospiro[cyclohexane-1,3′-indole]-5′-carboxylic acid] | 96% | 95% | 99% |  |  | 
O=C(O)c1ccc2c(c1)[C@]1(CC[C@@H](Oc3cc(F)ccc3F)CC1)C(=O)N2 [Example 56, (1r,4r)-4-(2,5-difluorophenoxy)-2′-oxo-1′,2′-dihydrospiro[cyclohexane-1,3′-indole]-5′-carboxylic acid] | 97% | 92% | 99% |  |  | 
O=C(O)c1ccc2c(c1)[C@]1(CC[C@@H](Oc3ccc(F)cc3F)CC1)C(=O)N2 [Example 57, (1r,4r)-4-(2,4-difluorophenoxy)-2′-oxo-1′,2′-dihydrospiro[cyclohexane-1,3′-indole]-5′-carboxylic acid] | 99% | 97% | 100% |  |  | 
O=C(O)c1ccc2c(c1)[C@]1(CC[C@@H](Oc3cc(F)cc(F)c3)CC1)C(=O)N2 [Example 58, (1r,4r)-4-(3,5-difluorophenoxy)-2′-oxo-1′,2′-dihydrospiro[cyclohexane-1,3′-indole]-5′-carboxylic acid] | 72% | 83% | 90% |  |  | 
O=C(O)c1ccc2c(c1)[C@]1(CC[C@@H](Oc3cccc(F)c3F)CC1)C(=O)N2 [Example 59, (1r,4r)-4-(2,3-difluorophenoxy)-2′-oxo-1′,2′-dihydrospiro[cyclohexane-1,3′-indole]-5′-carboxylic acid] | 87% | 86% | 97% |  |  | 
N#Cc1cccc(O[C@H]2CC[C@@]3(CC2)C(=O)Nc2ccc(C(=O)O)cc23)c1F [Example 60, (1r,4r)-4-(3-cyano-2-fluorophenoxy)-2′-oxo-1′,2′-dihydrospiro[cyclohexane-1,3′-indole]-5′-carboxylic acid] | 87% | 90% | 98% |  |  | 
N#Cc1ccc(O[C@H]2CC[C@@]3(CC2)C(=O)Nc2ccc(C(=O)O)cc23)cc1F [Example 61, (1r,4r)-4-(4-cyano-3-fluorophenoxy)-2′-oxo-1′,2′-dihydrospiro[cyclohexane-1,3′-indole]-5′-carboxylic acid] | 100% | 95% | 100% |  |  | 
N#Cc1cccc(F)c1O[C@H]1CC[C@@]2(CC1)C(=O)Nc1ccc(C(=O)O)cc12 [Example 62, (1r,4r)-4-(2-cyano-6-fluorophenoxy)-2′-oxo-1′,2′-dihydrospiro[cyclohexane-1,3′-indole]-5′-carboxylic acid] | 95% | 91% | 99% |  |  | 
N#Cc1c(F)cccc1O[C@H]1CC[C@@]2(CC1)C(=O)Nc1ccc(C(=O)O)cc12 [Example 63, (1r,4r)-4-(2-cyano-3-fluorophenoxy)-2′-oxo-1′,2′-dihydrospiro[cyclohexane-1,3′-indole]-5′-carboxylic acid] | 69% | 87% | 96% |  |  | 
O=C(O)c1ccc2c(c1)[C@]1(CC[C@@H](Oc3cc(F)cc(Cl)c3)CC1)C(=O)N2 [Example 64, (1r,4r)-4-(3-chloro-5-fluorophenoxy)-2′-oxo-1′,2′-dihydrospiro[cyclohexane-1,3′-indole]-5′-carboxylic acid] | 80% | 93% | 94% |  |  | 
